Reference: US20260193264A1, “BENZOYPARAZINE PYRAZINES AND THEIR USES” (FOGHORN THERAPEUTICS INC., priority 2022, published 2026)

Columns and labels:
[1] = target: T1, HiBiT-BRM fusion protein in stable HeLa cell line (Homo sapiens, UniProt P51531); test: HiBiT-BRM cell-based degradation assay (Nano-Glo HiBiT Lytic Detection, 24 h); design: DC50: scale not given here; conditions: HeLa HiBiT-BRM cells; for DC50: read-out: BRM HiBit Degradation IC50; for BRM HiBit Degradation Maximum (%): top dose 30 μM
T1 construct: expressed in transfected cells
T1 sequence (P51531 whole entry, the tested form may be a part): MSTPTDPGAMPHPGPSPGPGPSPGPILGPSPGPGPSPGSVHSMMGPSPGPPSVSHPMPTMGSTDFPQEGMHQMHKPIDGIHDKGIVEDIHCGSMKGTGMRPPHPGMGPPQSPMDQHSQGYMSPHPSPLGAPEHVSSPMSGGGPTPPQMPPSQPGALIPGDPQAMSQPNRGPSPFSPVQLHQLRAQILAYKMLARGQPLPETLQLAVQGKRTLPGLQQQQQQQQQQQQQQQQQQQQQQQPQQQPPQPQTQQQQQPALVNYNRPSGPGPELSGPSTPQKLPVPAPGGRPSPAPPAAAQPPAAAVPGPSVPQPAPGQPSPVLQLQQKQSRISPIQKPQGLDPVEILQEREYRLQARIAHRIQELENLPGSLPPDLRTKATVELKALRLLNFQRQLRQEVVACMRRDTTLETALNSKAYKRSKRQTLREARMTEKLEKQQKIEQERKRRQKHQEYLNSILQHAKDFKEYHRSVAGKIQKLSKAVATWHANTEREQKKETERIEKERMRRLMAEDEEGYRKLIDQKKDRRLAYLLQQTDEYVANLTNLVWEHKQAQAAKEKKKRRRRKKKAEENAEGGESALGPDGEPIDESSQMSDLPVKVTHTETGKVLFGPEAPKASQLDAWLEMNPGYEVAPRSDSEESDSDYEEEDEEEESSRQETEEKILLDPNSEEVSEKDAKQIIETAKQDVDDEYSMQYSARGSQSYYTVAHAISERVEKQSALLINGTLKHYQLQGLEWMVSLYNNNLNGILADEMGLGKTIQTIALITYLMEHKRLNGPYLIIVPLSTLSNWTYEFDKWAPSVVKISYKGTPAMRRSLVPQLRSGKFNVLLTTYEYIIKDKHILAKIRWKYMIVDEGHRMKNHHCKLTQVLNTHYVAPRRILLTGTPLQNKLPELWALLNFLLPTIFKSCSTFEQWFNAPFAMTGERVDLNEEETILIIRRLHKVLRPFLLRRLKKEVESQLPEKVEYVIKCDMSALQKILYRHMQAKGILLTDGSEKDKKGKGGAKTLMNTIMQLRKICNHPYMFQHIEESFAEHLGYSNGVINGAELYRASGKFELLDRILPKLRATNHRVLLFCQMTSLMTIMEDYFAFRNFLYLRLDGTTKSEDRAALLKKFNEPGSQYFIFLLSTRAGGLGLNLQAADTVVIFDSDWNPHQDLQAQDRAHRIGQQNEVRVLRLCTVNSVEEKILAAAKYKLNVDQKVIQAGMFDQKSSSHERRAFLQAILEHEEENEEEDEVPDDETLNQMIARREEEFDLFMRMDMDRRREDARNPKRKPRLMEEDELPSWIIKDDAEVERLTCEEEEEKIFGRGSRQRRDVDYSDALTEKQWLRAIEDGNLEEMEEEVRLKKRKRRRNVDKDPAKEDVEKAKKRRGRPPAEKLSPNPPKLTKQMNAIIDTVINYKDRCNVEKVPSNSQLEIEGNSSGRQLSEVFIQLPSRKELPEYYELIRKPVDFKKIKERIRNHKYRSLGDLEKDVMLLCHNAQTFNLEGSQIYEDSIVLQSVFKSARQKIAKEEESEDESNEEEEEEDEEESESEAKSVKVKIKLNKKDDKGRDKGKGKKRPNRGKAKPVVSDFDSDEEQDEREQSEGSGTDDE
Outline: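 HeLa stably expressing HiBiT-BRM; 24 h compound exposure, 10-pt 3-fold dilution from 30 μM final, duplicates. Lytic LgBiT complementation, luminescence. % degradation vs DMSO (HC) and 2 μM known BRM/BRG1 degrader (LC).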

[2] = target: T2, HiBit-BRG1 fusion protein in stable HeLa cell line expressing HiBit-BRG1 and LgBit (Homo sapiens, UniProt P51532); test: HiBiT-BRG1 cell-based degradation assay (Nano-Glo HiBiT, 24 h); conditions: HeLa HiBit-BRG1/LgBit cells; for Dmax: top dose 30 μM, read-out: BRG1 HiBit Degradation Maximum (%); for DC50: read-out: BRMG1 HiBit Degradation IC50
T2 construct: expressed in transfected cells
T2 sequence (P51532 whole entry, the tested form may be a part): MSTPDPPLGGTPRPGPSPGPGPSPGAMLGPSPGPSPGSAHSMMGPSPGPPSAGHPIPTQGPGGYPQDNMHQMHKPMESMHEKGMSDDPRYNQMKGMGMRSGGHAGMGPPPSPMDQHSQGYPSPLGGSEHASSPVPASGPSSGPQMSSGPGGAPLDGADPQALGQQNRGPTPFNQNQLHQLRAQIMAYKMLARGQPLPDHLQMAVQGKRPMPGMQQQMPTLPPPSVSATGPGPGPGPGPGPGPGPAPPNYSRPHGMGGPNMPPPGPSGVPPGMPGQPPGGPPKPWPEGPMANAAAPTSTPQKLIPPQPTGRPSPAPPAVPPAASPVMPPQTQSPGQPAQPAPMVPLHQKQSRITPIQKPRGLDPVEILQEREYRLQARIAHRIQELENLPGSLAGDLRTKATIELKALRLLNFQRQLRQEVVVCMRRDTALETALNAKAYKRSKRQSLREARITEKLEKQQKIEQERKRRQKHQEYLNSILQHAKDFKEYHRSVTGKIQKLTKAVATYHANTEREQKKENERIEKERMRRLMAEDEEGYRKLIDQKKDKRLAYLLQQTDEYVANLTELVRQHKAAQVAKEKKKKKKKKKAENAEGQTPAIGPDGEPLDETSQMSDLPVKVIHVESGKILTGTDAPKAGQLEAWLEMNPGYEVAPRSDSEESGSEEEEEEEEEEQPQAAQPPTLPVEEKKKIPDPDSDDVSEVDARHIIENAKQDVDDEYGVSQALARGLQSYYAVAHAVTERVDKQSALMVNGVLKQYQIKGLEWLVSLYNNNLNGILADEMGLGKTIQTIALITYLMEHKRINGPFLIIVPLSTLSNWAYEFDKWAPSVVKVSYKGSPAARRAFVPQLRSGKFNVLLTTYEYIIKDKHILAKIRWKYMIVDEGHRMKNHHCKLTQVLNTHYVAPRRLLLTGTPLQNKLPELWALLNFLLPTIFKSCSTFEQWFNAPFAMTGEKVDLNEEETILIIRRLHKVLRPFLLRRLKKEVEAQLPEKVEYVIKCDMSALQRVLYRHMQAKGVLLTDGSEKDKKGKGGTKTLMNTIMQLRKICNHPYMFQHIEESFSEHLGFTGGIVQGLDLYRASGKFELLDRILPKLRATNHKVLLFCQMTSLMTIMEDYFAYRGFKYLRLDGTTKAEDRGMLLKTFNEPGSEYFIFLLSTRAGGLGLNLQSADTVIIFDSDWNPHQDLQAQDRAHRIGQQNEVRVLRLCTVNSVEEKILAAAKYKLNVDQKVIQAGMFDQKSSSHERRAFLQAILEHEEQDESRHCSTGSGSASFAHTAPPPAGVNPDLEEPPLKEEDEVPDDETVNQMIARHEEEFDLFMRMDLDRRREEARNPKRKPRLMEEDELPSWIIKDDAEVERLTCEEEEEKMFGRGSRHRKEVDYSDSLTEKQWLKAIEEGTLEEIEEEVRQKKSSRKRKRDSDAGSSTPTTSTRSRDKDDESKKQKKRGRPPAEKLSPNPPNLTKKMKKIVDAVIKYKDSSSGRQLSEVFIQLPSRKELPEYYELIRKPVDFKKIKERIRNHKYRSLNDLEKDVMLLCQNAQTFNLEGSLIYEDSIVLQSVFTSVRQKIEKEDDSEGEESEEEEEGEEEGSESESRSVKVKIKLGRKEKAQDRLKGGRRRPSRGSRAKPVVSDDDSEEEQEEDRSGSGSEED
Outline: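 Degradation calculated from NanoBiT luminescence relative to DMSO-treated cells (high) and cells given 2 μM known BRM/BRG1 degrader (low). HeLa cells stably expressing HiBiT-BRG1 plus LgBiT were exposed to compound for 24 h before lytic HiBiT detection.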

Structure (SMILES) | DC50 [1] | Dmax [2] | DC50 [2] | BRM HiBit Degradation Maximum (%) [1]
Cc1ncsc1-c1ccc([C@H](C)NC(=O)[C@@H]2C[C@@H](O)CN2C(=O)[C@@H](c2cc(N3CCC[C@H](c4ccc5cc(-c6ccccc6O)nnc5c4)C3)no2)C(C)C)cc1 [Compound 90, (2S,4R)-4-hydroxy-1-((R)-2-(3-((R)-3-(3-(2-hydroxyphenyl)cinnolin-7-yl)piperidin-1-yl)isoxazol-5-yl)-3-methylbutanoyl)-N-((S)-1-(4-(4-methylthiazol-5-yl)phenyl)ethyl)pyrrolidine-2-carboxamide] | < 10 nM | > 75% | < 10 nM | A (“A” indicates maximum degradation ≥75%)
Cc1ncsc1-c1ccc([C@H](C)NC(=O)[C@@H]2C[C@@H](O)CN2C(=O)[C@@H](c2cc(N3CCC[C@@H](c4ccc5cc(-c6ccccc6O)nnc5c4)C3)no2)C(C)C)cc1 [Compound 91, (2S,4R)-4-hydroxy-1-((R)-2-(3-((S)-3-(3-(2-hydroxyphenyl)cinnolin-7-yl)piperidin-1-yl)isoxazol-5-yl)-3-methylbutanoyl)-N-((S)-1-(4-(4-methylthiazol-5-yl)phenyl)ethyl)pyrrolidine-2-carboxamide] | < 10 nM | > 75% | < 10 nM | A (“A” indicates maximum degradation ≥75%)
Cc1ncsc1-c1ccc([C@H](C)NC(=O)[C@@H]2C[C@@H](O)CN2C(=O)[C@@H](c2cc(N3CCC4(CC[C@H](c5ccc6cc(-c7ccccc7O)nnc6c5)C4)CC3)no2)C(C)C)cc1 [Compound 92, (2S,4R)-4-hydroxy-1-((R)-2-(3-((S)-2-(3-(2-hydroxyphenyl)cinnolin-7-yl)-8-azaspiro[4.5]decan-8-yl)isoxazol-5-yl)-3-methylbutanoyl)-N-((S)-1-(4-(4-methylthiazol-5-yl)phenyl)ethyl)pyrrolidine-2-carboxamide] | < 10 nM | > 75% | > 10 nM | A (“A” indicates maximum degradation ≥75%)
Cc1ncsc1-c1ccc([C@H](C)NC(=O)[C@@H]2C[C@@H](O)CN2C(=O)[C@@H](c2cc(N3CCC4(CC[C@@H](c5ccc6cc(-c7ccccc7O)nnc6c5)C4)CC3)no2)C(C)C)cc1 [Compound 93, (2S,4R)-4-hydroxy-1-((R)-2-(3-((R)-2-(3-(2-hydroxyphenyl)cinnolin-7-yl)-8-azaspiro[4.5]decan-8-yl)isoxazol-5-yl)-3-methylbutanoyl)-N-((S)-1-(4-(4-methylthiazol-5-yl)phenyl)ethyl)pyrrolidine-2-carboxamide] | < 10 nM | < 50% | – | A (“A” indicates maximum degradation ≥75%)
Cc1ncsc1-c1ccc([C@H](C)NC(=O)[C@@H]2C[C@@H](O)CN2C(=O)[C@@H](c2cc(N3CCC4(CC3)CC(c3ccc5cc(-c6cccc(F)c6O)nnc5c3)C4)no2)C(C)C)cc1 [Compound 94, (2S,4R)-1-((R)-2-(3-(2-(3-(3-fluoro-2-hydroxyphenyl)cinnolin-7-yl)-7-azaspiro[3.5]nonan-7-yl)isoxazol-5-yl)-3-methylbutanoyl)-4-hydroxy-N-((S)-1-(4-(4-methylthiazol-5-yl)phenyl)ethyl)pyrrolidine-2-carboxamide] | < 10 nM | < 50% | – | A (“A” indicates maximum degradation ≥75%)
Cc1ncsc1-c1ccc([C@H](C)NC(=O)[C@@H]2C[C@@H](O)CN2C(=O)[C@@H](c2cc(N3CC4(CCN(c5ccc6cc(-c7ccccc7O)nnc6c5)CC4)C3)no2)C(C)C)cc1 [Compound 95, (2S,4R)-4-hydroxy-1-((R)-2-(3-(7-(3-(2-hydroxyphenyl)cinnolin-7-yl)-2,7-diazaspiro[3.5]nonan-2-yl)isoxazol-5-yl)-3-methylbutanoyl)-N-((S)-1-(4-(4-methylthiazol-5-yl)phenyl)ethyl)pyrrolidine-2-carboxamide] | < 10 nM | > 75% | < 10 nM | A (“A” indicates maximum degradation ≥75%)
Cc1ncsc1-c1ccc([C@H](C)NC(=O)[C@@H]2C[C@@H](O)CN2C(=O)[C@@H](c2cc(N3CCC4(CCC(c5ccc6cc(-c7ccccc7O)nnc6c5)CC4)CC3)no2)C(C)C)cc1 [Compound 96, (2S,4R)-4-hydroxy-1-((R)-2-(3-(9-(3-(2-hydroxyphenyl)cinnolin-7-yl)-3-azaspiro[5.5]undecan-3-yl)isoxazol-5-yl)-3-methylbutanoyl)-N-((S)-1-(4-(4-methylthiazol-5-yl)phenyl)ethyl)pyrrolidine-2-carboxamide] | < 10 nM | > 75% | > 10 nM | A (“A” indicates maximum degradation ≥75%)
Cc1ncsc1-c1ccc([C@H](C)NC(=O)[C@@H]2C[C@@H](O)CN2C(=O)[C@@H](c2cc(-c3ccc4nnc(-c5ccccc5O)cc4c3)no2)C(C)C)cc1 [Compound 97, (2S,4R)-4-hydroxy-1-[(2R)-2-{3-[3-(2-hydroxyphenyl)cinnolin-6-yl]-1,2-oxazol-5-yl}-3-methylbutanoyl]-N-[(1S)-1-[4-(4-methyl-1,3-thiazol-5-yl)phenyl]ethyl]pyrrolidine-2-carboxamide] | < 10 nM | > 75% | < 10 nM | A (“A” indicates maximum degradation ≥75%)
Cc1ncsc1-c1ccc([C@H](C)NC(=O)[C@@H]2C[C@@H](O)CN2C(=O)[C@@H](c2cc(N3CCC4(CCN(c5ccc6nnc(-c7ccccc7O)cc6c5)C4)C3)no2)C(C)C)cc1 (stereo partly drawn) [Compound 98, (2S,4R)-4-hydroxy-1-((2R)-2-(3-(7-(3-(2-hydroxyphenyl)cinnolin-6-yl)-2,7-diazaspiro[4.4]nonan-2-yl)isoxazol-5-yl)-3-methylbutanoyl)-N-((S)-1-(4-(4-methylthiazol-5-yl)phenyl)ethyl)pyrrolidine-2-carboxamide] | < 10 nM | > 75% | > 10 nM | A (“A” indicates maximum degradation ≥75%)

More lines, main results first:

DC50 [1] | Dmax [2] | DC50 [2] | Structure (SMILES) | BRM HiBit Degradation Maximum (%) [1]
< 10 nM | < 50% | – | CC(C)[C@@H](C(=O)N1C[C@H](O)C[C@H]1C(=O)N[C@@H](C)c1ccccc1)c1cc(N2CC3(CN(c4ccc5cc(-c6ccccc6O)nnc5c4)C3)C2)no1 [Compound 85, (2S,4R)-4-hydroxy-1-((R)-2-(3-(6-(3-(2-hydroxyphenyl)cinnolin-7-yl)-2,6-diazaspiro[3.3]heptan-2-yl)isoxazol-5-yl)-3-methylbutanoyl)-N-((S)-1-phenylethyl)pyrrolidine-2-carboxamide] | A (“A” indicates maximum degradation ≥75%)
< 10 nM | < 50% | – | Cc1ncsc1-c1ccc([C@H](C)NC(=O)[C@@H]2C[C@@H](O)CN2C(=O)[C@@H](c2cc(N3C[C@@H]4[C@H](C3)[C@H]4c3ccc4nnc(-c5ccccc5O)cc4c3)no2)C(C)C)cc1 [Compound 86, (2S,4R)-4-hydroxy-1-((R)-2-(3-((1R,5S,6S)-6-(3-(2-hydroxyphenyl)cinnolin-6-yl)-3-azabicyclo[3.1.0]hexan-3-yl)isoxazol-5-yl)-3-methylbutanoyl)-N-((S)-1-(4-(4-methylthiazol-5-yl)phenyl)ethyl)pyrrolidine-2-carboxamide] | A (“A” indicates maximum degradation ≥75%)
< 10 nM | > 75% | < 10 nM | Cc1ncsc1-c1ccc([C@H](C)NC(=O)[C@@H]2C[C@@H](O)CN2C(=O)[C@@H](c2cc(N3CC4(CCC(c5ccc6cc(-c7ccccc7O)nnc6c5)CC4)C3)no2)C(C)C)cc1 [Compound 87, (2S,4R)-4-hydroxy-1-((R)-2-(3-(7-(3-(2-hydroxyphenyl)cinnolin-7-yl)-2-azaspiro[3.5]nonan-2-yl)isoxazol-5-yl)-3-methylbutanoyl)-N-((S)-1-(4-(4-methylthiazol-5-yl)phenyl)ethyl)pyrrolidine-2-carboxamide] | A (“A” indicates maximum degradation ≥75%)
< 10 nM | < 50% | – | Cc1cc(-c2cc([C@H](C(=O)N3C[C@H](O)C[C@H]3C(=O)N[C@@H](C)c3ccc(-c4scnc4C)cc3)C(C)C)on2)cnc1N1CCC(c2ccc3cc(-c4ccccc4O)nnc3c2)CC1 [Compound 88, (2S,4R)-4-hydroxy-1-((R)-2-(3-(6-(4-(3-(2-hydroxyphenyl)cinnolin-7-yl)piperidin-1-yl)-5-methylpyridin-3-yl)isoxazol-5-yl)-3-methylbutanoyl)-N-((S)-1-(4-(4-methylthiazol-5-yl)phenyl)ethyl)pyrrolidine-2-carboxamide] | A (“A” indicates maximum degradation ≥75%)
< 10 nM | < 50% | – | CC(C)[C@@H](C(=O)N1C[C@H](O)C[C@H]1C(=O)N[C@@H](C)c1ccc(F)cc1)c1cc(N2CC3(CN(c4ccc5cc(-c6ccccc6O)nnc5c4)C3)C2)no1 [Compound 89, (2S,4R)-N-((S)-1-(4-fluorophenyl)ethyl)-4-hydroxy-1-((R)-2-(3-(6-(3-(2-hydroxyphenyl)cinnolin-7-yl)-2,6-diazaspiro[3.3]heptan-2-yl)isoxazol-5-yl)-3-methylbutanoyl)pyrrolidine-2-carboxamide] | A (“A” indicates maximum degradation ≥75%)
